Reference: PubChem BioAssay AID1963840 (Molecular Pharmacology Branch, DTP, NCI, 2024)

System: 695427-040-R-J1-PDC complex spheroid viability
Assay: Anticancer human tumor 695427-040-R-J1-PDC patient-derived colon adenocarcinoma cell line growth inhibition [POLQ]
Conditions: for IC50: curve of first compound; for viability, T/C: stronger effect = lower value
Method in brief: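 Three-cell-type spheroids modelling solid tumor plus stroma served as the readout system; POL inhibitors were tested individually and in combination, concentration ranges set by clinical Cmax where known.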

[1] = second compound 0.0316 µM, first compound 0.0316 µM
[2] = second compound 0.0316 µM, first compound 0.1 µM
[3] = second compound 0.0316 µM, first compound 0.316 µM
[4] = second compound 0.0316 µM, first compound 1 µM
[5] = second compound 0.0316 µM, first compound 3.16 µM
[6] = second compound 0.0316 µM, first compound 10 µM
[7] = second compound 0.1 µM, first compound 0.0316 µM
[8] = second compound 0.1 µM, first compound 0.1 µM
[9] = second compound 0.1 µM, first compound 0.316 µM
[10] = second compound 0.1 µM, first compound 1 µM
[11] = second compound 0.1 µM, first compound 3.16 µM
[12] = second compound 0.1 µM, first compound 10 µM
[13] = second compound 0.316 µM, first compound 0.0316 µM
[14] = second compound 0.316 µM, first compound 0.1 µM
[15] = second compound 0.316 µM, first compound 0.316 µM
[16] = second compound 0.316 µM, first compound 1 µM
[17] = second compound 0.316 µM, first compound 3.16 µM
[18] = second compound 0.316 µM, first compound 10 µM
[19] = second compound 1 µM, first compound 0.0316 µM
[20] = second compound 1 µM, first compound 0.1 µM
[21] = second compound 1 µM, first compound 0.316 µM
[22] = second compound 1 µM, first compound 1 µM
[23] = second compound 1 µM, first compound 3.16 µM
[24] = second compound 1 µM, first compound 10 µM
[25] = second compound 3.16 µM, first compound 0.0316 µM
[26] = second compound 3.16 µM, first compound 0.1 µM
[27] = second compound 3.16 µM, first compound 0.316 µM
[28] = second compound 3.16 µM, first compound 1 µM
[29] = second compound 3.16 µM, first compound 3.16 µM
[30] = second compound 3.16 µM, first compound 10 µM
[31] = second compound 10 µM, first compound 0.0316 µM
[32] = second compound 10 µM, first compound 0.1 µM
[33] = second compound 10 µM, first compound 0.316 µM
[34] = second compound 10 µM, first compound 1 µM
[35] = second compound 10 µM, first compound 3.16 µM
[36] = second compound 10 µM, first compound 10 µM
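Further: spheroids exposed to compounds for seven days.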
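Wherever viability, T/C is given: 100% = DMSO vehicle control viability.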

C#Cc1c(F)ccc2cc(O)cc(-c3ncc4c(N5CC6CCC(C5)N6)nc(OCC56CCCN5CC(F)C6)nc4c3F)c12 (stereo not drawn) + Cc1cccc(N(C)C(=O)C2C(O)CCN2c2nc(C)cc(C(F)(F)F)c2C#N)c1
IC50 (second compound 0.0316 µM): > 10 µM
IC50 (second compound 0.1 µM): > 10 µM
IC50 (second compound 0.316 µM): > 10 µM
IC50 (second compound 1 µM): > 10 µM
IC50 (second compound 3.16 µM): > 10 µM
IC50 (second compound 10 µM): > 10 µM
viability, T/C [1]: 106%
viability, T/C [2]: 99.3%
viability, T/C [3]: 98%
viability, T/C [4]: 104%
viability, T/C [5]: 88.3%
viability, T/C [6]: 86.9%
viability, T/C [7]: 102%
viability, T/C [8]: 100%
viability, T/C [9]: 90.8%
viability, T/C [10]: 96%
viability, T/C [11]: 92.1%
viability, T/C [12]: 78.8%
viability, T/C [13]: 98.3%
viability, T/C [14]: 99%
viability, T/C [15]: 97.8%
viability, T/C [16]: 104%
viability, T/C [17]: 90.8%
viability, T/C [18]: 80.6%
viability, T/C [19]: 98%
viability, T/C [20]: 92.4%
viability, T/C [21]: 94.3%
viability, T/C [22]: 92.1%
viability, T/C [23]: 89.2%
viability, T/C [24]: 83.2%
viability, T/C [25]: 88.5%
viability, T/C [26]: 94.3%
viability, T/C [27]: 97%
viability, T/C [28]: 90.4%
viability, T/C [29]: 91%
viability, T/C [30]: 76.1%
viability, T/C [31]: 92.8%
viability, T/C [32]: 84.7%
viability, T/C [33]: 85.4%
viability, T/C [34]: 84.7%
viability, T/C [35]: 73.2%
viability, T/C [36]: 61.5%

CC1COCCN1c1cc(C2(O)CC3CCC(C2)O3)c2cnn(-c3ccn[nH]3)c2n1 (stereo not drawn) + Cc1cccc(N(C)C(=O)C2C(O)CCN2c2nc(C)cc(C(F)(F)F)c2C#N)c1
IC50 (second compound 0.0316 µM): 6.2 µM
IC50 (second compound 0.1 µM): 7.33 µM
IC50 (second compound 0.316 µM): 6.13 µM
IC50 (second compound 1 µM): 6.54 µM
IC50 (second compound 3.16 µM): 4.63 µM
IC50 (second compound 10 µM): 2.82 µM
viability, T/C [1]: 102%
viability, T/C [2]: 84.5%
viability, T/C [3]: 76.9%
viability, T/C [4]: 66%
viability, T/C [5]: 52.5%
viability, T/C [6]: 47.3%
viability, T/C [7]: 102%
viability, T/C [8]: 91.3%
viability, T/C [9]: 85%
viability, T/C [10]: 70.8%
viability, T/C [11]: 55.9%
viability, T/C [12]: 47.9%
viability, T/C [13]: 109%
viability, T/C [14]: 88.1%
viability, T/C [15]: 80.6%
viability, T/C [16]: 67.1%
viability, T/C [17]: 58.4%
viability, T/C [18]: 44%
viability, T/C [19]: 100%
viability, T/C [20]: 91.4%
viability, T/C [21]: 82.6%
viability, T/C [22]: 66.6%
viability, T/C [23]: 56.8%
viability, T/C [24]: 46.3%
viability, T/C [25]: 96%
viability, T/C [26]: 92.6%
viability, T/C [27]: 73.8%
viability, T/C [28]: 65.6%
viability, T/C [29]: 53.8%
viability, T/C [30]: 43.5%
viability, T/C [31]: 93.3%
viability, T/C [32]: 88.6%
viability, T/C [33]: 70.3%
viability, T/C [34]: 56.1%
viability, T/C [35]: 51.5%
viability, T/C [36]: 45.6%

O=C(Nc1ccc(O)c(NS(=O)(=O)c2ccc(F)cc2)c1)c1ccc(-c2ccccc2)cc1 + Cc1cccc(N(C)C(=O)C2C(O)CCN2c2nc(C)cc(C(F)(F)F)c2C#N)c1
IC50 (second compound 0.0316 µM): > 10 µM
IC50 (second compound 0.1 µM): > 10 µM
IC50 (second compound 0.316 µM): > 10 µM
IC50 (second compound 1 µM): > 10 µM
IC50 (second compound 3.16 µM): > 10 µM
IC50 (second compound 10 µM): > 10 µM
viability, T/C [1]: 111%
viability, T/C [2]: 107%
viability, T/C [3]: 92.2%
viability, T/C [4]: 103%
viability, T/C [5]: 108%
viability, T/C [6]: 98.4%
viability, T/C [7]: 105%
viability, T/C [8]: 101%
viability, T/C [9]: 95.9%
viability, T/C [10]: 99.5%
viability, T/C [11]: 112%
viability, T/C [12]: 88.2%
viability, T/C [13]: 104%
viability, T/C [14]: 103%
viability, T/C [15]: 97.4%
viability, T/C [16]: 101%
viability, T/C [17]: 111%
viability, T/C [18]: 86.9%
viability, T/C [19]: 109%
viability, T/C [20]: 95.9%
viability, T/C [21]: 101%
viability, T/C [22]: 94.4%
viability, T/C [23]: 115%
viability, T/C [24]: 92.3%
viability, T/C [25]: 97.6%
viability, T/C [26]: 101%
viability, T/C [27]: 93.5%
viability, T/C [28]: 103%
viability, T/C [29]: 103%
viability, T/C [30]: 93.6%
viability, T/C [31]: 103%
viability, T/C [32]: 92.2%
viability, T/C [33]: 96.1%
viability, T/C [34]: 94%
viability, T/C [35]: 102%
viability, T/C [36]: 82.6%

COc1cccc2c1C(=O)c1c(O)c3c(c(O)c1C2=O)CC(O)(C(=O)CO)CC3OC1CC(N)C(O)C(C)O1 (stereo not drawn) + Nc1ccc(C#CCN(C(=O)Cc2ncc(C(F)(F)F)cc2C(F)(F)F)c2ccc(F)cc2)nn1
IC50 (second compound 0.0316 µM): > 10 µM
IC50 (second compound 0.1 µM): > 10 µM
IC50 (second compound 0.316 µM): > 10 µM
IC50 (second compound 1 µM): > 10 µM
IC50 (second compound 3.16 µM): > 10 µM
IC50 (second compound 10 µM): 3.38 µM
viability, T/C [1]: 101%
viability, T/C [2]: 90.9%
viability, T/C [3]: 97.3%
viability, T/C [4]: 78.2%
viability, T/C [5]: 79.6%
viability, T/C [6]: 71%
viability, T/C [7]: 113%
viability, T/C [8]: 95%
viability, T/C [9]: 98.9%
viability, T/C [10]: 80%
viability, T/C [11]: 84.5%
viability, T/C [12]: 64.6%
viability, T/C [13]: 99.6%
viability, T/C [14]: 99.8%
viability, T/C [15]: 94.4%
viability, T/C [16]: 83.7%
viability, T/C [17]: 81.5%
viability, T/C [18]: 68.3%
viability, T/C [19]: 106%
viability, T/C [20]: 89.5%
viability, T/C [21]: 95.7%
viability, T/C [22]: 81.8%
viability, T/C [23]: 79.6%
viability, T/C [24]: 58.6%
viability, T/C [25]: 96.2%
viability, T/C [26]: 92%
viability, T/C [27]: 90.9%
viability, T/C [28]: 77.8%
viability, T/C [29]: 76.9%
viability, T/C [30]: 51.6%
viability, T/C [31]: 95.8%
viability, T/C [32]: 84.3%
viability, T/C [33]: 86.6%
viability, T/C [34]: 68.7%
viability, T/C [35]: 50.8%
viability, T/C [36]: 35.3%
